We go through one compound from US20220235043A1, “SUBSTITUTED SULFONAMIDE PYRROLOPYRIDINES AS JAK INHIBITORS” (ACLARIS THERAPEUTICS, INC., priority 2019, published 2022).

The target in test [1] is T1, Tyk-2 (Homo sapiens, UniProt P29597).
T1 construct: purchased Thermo Fisher Scientific (SelectScreen service)
Description: Tyk-2 enzyme activity assay (Thermo Fisher Selectscreen, Z-lyte). It counts as biochemical. The conditions noted are these: read-out: Tyk-2 Inhibition IC50. In a few lines: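 Z-lyte FRET assay with 3.75-15 ng TYK2 and 2 μM Tyr 03 peptide in 50 mM HEPES pH 7.0, 10 mM MgCl2, 1 mM EGTA, 0.01% BRIJ-35. Reaction ran one hour before development reagent was added. Compounds were tested in an 11-point dose-response; IC50 came from a 4-parameter logistic fit of emission ratio, normalised to no-enzyme and 2% DMSO vehicle controls.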

The target of test [2] is T2, JAK3 (a.a. 781-1124) (Homo sapiens, UniProt P52333).
T2 construct: JAK3 (a.a. 781-1124, ThermoFisher); purchased ThermoFisher
In words: JAK3 enzyme activity assay (SRCtide phosphorylation, Caliper). Particulars: 1 uM ATP; read-out: JAK3 Inhibition IC50. It counts as biochemical. In a few lines: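 Kinase reactions used 2.5 nM JAK3 (aa 781-1124), 1 μM FAM-SRCtide and 1 uM ATP in HEPES pH 7.5, MgCl2, BSA, Tween-20, 2% DMSO. Incubation was 40 min at room temperature, stopped with EDTA. Phospho/unphospho peptide separated by Caliper mobility shift; IC50 from 11-point 3-fold 4-parameter fits.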

Test [3] relates to IL-2 stimulated STAT5 phosphorylation on Tyr694 (JAK1/3). In words: JAK1/3 cellular target modulation: IL-2 stimulated phospho-STAT5 in human PBMC. It counts as cell-based. Particulars: IL-2 25 ng/ml, read-out: IL2-STAT5 IC50. In a few lines:
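Thawed human PBMC (200,000/well) preincubated with compound 1 h at 37°C, then stimulated with IL-12 1.7 ng/ml for 25 min, IFNγ 10 ng/ml for 10 min, or IL-2 25 ng/ml for 5 min. Lysate phospho-STAT4 Tyr693 and phospho-STAT5 Tyr694 read by MSD; phospho-STAT1 Tyr701 by sandwich ELISA.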

Test [4] concerns the target T3, JAK1 (Homo sapiens, UniProt P23458).
T3 construct: purchased Thermo Fisher Scientific (SelectScreen service)
In words: JAK1 enzyme activity assay (Thermo Fisher Selectscreen, Z-lyte). It counts as biochemical. The conditions noted are these: read-out: JAK1 Inhibition IC50. Summed up: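 Z-lyte FRET kinase assay with 21.2-91.5 ng JAK1 and 2 μM Tyr 06 peptide in 50 mM HEPES pH 7.0, 10 mM MgCl2, 1 h reaction before development reagent. Background without enzyme, uninhibited signal with 2% DMSO vehicle; 11-point dose-response, IC50 from 4-parameter logistic fit of emission ratio.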

Some results are limits rather than exact numbers.

T1 sequence (P29597 whole entry): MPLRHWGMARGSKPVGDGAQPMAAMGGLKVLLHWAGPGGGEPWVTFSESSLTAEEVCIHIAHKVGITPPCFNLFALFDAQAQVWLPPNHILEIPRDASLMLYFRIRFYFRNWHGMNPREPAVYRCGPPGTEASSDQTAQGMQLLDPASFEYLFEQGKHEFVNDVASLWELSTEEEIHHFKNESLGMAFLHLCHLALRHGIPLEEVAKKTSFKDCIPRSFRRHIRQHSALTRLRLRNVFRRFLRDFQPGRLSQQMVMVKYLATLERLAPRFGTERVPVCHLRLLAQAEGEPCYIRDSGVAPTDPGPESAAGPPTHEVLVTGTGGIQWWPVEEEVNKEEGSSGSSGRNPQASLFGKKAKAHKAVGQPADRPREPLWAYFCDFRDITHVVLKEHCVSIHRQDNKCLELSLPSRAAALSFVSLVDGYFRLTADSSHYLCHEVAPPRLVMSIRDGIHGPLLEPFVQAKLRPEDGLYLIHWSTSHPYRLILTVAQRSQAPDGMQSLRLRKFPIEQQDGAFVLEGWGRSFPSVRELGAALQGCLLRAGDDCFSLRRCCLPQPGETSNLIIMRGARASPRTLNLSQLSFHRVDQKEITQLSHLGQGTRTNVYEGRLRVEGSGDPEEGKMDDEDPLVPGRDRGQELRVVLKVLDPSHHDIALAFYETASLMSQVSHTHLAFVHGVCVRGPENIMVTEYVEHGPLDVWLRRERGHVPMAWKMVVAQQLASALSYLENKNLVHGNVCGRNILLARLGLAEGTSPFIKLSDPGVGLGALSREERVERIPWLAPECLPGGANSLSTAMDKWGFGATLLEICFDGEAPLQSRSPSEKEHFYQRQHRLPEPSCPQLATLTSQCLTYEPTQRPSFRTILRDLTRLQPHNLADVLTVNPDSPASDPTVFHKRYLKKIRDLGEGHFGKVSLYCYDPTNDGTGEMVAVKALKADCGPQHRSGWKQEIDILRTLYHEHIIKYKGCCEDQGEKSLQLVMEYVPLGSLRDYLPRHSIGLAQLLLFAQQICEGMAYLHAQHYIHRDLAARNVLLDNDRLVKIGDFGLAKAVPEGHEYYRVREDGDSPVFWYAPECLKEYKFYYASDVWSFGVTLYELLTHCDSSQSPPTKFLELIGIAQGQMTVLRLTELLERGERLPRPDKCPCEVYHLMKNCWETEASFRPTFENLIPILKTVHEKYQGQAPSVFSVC
T2 sequence (P52333 781-1124): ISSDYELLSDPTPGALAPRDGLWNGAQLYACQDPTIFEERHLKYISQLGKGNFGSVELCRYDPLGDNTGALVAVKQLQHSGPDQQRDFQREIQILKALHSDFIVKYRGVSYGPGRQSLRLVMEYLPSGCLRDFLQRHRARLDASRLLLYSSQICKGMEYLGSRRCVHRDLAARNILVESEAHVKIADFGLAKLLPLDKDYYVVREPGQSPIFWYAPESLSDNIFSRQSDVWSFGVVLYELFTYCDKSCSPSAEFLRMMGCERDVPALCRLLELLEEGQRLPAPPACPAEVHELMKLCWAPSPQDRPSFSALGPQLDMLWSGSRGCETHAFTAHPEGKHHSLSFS
T3 sequence (P23458 whole entry): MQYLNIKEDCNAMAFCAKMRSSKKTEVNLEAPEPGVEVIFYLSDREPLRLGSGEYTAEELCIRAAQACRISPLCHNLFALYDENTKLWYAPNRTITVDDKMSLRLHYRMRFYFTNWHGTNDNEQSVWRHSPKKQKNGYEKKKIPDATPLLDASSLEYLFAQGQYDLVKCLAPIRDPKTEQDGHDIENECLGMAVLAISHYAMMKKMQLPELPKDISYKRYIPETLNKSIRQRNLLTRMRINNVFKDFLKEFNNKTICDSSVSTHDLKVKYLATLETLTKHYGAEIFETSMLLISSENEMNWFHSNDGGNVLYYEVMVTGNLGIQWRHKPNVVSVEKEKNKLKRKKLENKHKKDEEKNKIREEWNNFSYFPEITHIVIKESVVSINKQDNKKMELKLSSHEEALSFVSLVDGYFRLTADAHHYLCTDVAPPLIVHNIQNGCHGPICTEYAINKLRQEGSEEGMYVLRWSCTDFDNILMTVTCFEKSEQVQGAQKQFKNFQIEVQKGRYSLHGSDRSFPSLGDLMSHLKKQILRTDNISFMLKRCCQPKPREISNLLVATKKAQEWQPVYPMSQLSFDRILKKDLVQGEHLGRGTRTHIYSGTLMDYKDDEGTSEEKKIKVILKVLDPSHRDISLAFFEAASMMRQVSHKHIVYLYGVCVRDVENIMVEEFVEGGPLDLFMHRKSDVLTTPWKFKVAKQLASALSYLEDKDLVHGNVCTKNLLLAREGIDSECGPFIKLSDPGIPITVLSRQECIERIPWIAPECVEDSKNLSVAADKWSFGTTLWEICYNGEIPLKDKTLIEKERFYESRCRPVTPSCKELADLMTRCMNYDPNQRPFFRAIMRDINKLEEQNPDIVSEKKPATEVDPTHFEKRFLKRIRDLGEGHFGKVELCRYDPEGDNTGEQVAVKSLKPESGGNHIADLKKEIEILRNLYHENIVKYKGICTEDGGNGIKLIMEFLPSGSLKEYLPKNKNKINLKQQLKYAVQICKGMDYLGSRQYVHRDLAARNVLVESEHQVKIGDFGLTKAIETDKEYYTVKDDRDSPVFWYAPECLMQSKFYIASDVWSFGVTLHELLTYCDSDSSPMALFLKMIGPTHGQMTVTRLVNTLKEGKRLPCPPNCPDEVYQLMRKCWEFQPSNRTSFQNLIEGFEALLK

The term IC50 denotes the concentration needed to halve the response being measured. For `Cc1nnc(-c2cnc3[nH]ccc3c2N[C@H]2C[C@@H](NS(=O)(=O)c3cccc(C#N)c3)C2)s1` [Example 75, 3-cyano-N-((1s,3s)-3-((5-(5-methyl-1,3,4-thiadiazol-2-yl)-1H-pyrrolo[2,3-b]pyridin-4-yl)amino)cyclobutyl)benzenesulfonamide], the IC50 was not above 10 nM in test [1], 10 to 100 nM in test [2], not above 100 nM in test [3] and not above 10 nM in test [4].
